Assay results taken from BindingDB's records for doi:10.1074/jbc.M113.496463 (National Institutes of Health, National Institutes of …, 2013).
“And” between values parts separate entries of the source, which are not always exact repeats. Identical values can stand only once.

What was measured:
[1] = target: T1, ATP-dependent DNA helicase DinG (Escherichia coli (strain K12), UniProt P27296); test: Helicase Assays; settings: pH 8
T1 sequence (P27296 whole entry): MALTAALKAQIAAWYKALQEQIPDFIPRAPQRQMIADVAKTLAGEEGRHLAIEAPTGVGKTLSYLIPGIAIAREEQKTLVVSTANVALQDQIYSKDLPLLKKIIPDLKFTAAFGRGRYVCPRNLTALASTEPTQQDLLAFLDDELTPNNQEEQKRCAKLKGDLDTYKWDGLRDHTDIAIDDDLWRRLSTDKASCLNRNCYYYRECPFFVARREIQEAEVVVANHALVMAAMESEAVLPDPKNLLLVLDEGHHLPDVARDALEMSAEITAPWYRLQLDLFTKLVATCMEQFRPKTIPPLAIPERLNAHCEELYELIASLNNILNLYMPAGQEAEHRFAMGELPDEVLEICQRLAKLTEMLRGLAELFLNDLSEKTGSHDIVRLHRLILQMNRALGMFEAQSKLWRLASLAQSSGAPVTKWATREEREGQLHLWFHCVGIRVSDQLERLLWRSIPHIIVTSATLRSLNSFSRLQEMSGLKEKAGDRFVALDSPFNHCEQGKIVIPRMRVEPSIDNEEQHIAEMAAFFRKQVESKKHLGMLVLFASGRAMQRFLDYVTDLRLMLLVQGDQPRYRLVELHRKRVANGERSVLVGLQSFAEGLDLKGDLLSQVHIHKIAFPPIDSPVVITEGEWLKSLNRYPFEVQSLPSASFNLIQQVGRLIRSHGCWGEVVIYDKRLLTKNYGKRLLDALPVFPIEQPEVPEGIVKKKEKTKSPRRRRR
Experimental: (§1) Standard helicase reaction mixtures (20μl) containing 5 fmol of the indicated TP-G4 or OX-1-G2' DNA substrates or forked duplex DNA substrate (0.25 nM DNA substrate concentration), 1mM ATP, and the indicated concentrations of the specified helicase were as previously described for FANCJ [Wu et al., Mol. Cell. Biol., 28:4116-4128] and DDX11 [Wu et al., J. Biol. Chem., 287:1007-1021]. Helicase reactions for XPD and DinG were performed in buffer that contained 20mM Tris-HCl (pH 8.0), 10mM KCl, 1mM dithiothreitol, 5mM MgCl2, and 100 μg/ml BSA. Reactions were performed at 37 °C for 15 min in the presence of 1 mM ATP, the DNA substrates mentioned above, and the indicated helicase protein concentrations. Forthe unimolecular Poly(A) Zic1-G4 DNA substrate, helicase reactions were performed in reaction buffer containing a 20-fold excess of peptide-nucleic acid complementary oligonucleotide [Giri et al., Nucleic Acids Res., 39:7161-7178]. G4 helicase reactions were terminated by th

[2] = target: T2, Fanconi anemia group J protein (Homo sapiens, UniProt Q9BX63); test: Helicase Assays; settings: pH 8
T2 sequence (Q9BX63 whole entry): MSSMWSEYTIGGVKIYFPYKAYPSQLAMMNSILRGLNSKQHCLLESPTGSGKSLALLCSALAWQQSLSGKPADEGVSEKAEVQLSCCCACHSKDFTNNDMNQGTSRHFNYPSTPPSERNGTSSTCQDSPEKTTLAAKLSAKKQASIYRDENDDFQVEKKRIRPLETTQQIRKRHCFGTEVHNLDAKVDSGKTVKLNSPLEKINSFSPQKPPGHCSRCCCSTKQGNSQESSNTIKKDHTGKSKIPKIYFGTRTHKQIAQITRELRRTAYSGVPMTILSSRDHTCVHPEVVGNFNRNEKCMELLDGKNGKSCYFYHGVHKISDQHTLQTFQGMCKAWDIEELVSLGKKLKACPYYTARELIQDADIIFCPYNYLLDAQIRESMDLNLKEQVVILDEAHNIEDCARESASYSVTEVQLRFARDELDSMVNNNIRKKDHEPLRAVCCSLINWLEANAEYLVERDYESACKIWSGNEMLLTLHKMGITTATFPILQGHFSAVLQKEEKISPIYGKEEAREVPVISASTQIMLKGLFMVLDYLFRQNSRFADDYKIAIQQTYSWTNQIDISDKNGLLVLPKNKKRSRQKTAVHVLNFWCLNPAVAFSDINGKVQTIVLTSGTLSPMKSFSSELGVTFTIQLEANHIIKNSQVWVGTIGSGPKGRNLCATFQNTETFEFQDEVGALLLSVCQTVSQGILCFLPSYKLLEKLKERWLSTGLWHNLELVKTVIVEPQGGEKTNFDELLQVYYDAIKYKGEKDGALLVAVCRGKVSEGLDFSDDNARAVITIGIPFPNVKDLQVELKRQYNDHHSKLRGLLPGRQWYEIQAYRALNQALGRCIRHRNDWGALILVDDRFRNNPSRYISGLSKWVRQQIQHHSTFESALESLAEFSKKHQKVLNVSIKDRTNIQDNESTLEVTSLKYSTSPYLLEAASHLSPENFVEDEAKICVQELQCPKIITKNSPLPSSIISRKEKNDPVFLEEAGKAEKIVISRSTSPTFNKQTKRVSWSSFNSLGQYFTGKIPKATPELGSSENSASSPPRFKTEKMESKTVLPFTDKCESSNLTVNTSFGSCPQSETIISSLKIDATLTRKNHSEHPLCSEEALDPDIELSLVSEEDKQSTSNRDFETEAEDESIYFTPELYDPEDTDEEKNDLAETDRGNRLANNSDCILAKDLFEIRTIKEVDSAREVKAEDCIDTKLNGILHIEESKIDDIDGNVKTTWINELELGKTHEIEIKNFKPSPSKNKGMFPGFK
Experimental: as §1

Compound	IC50 [1]	IC50 [2]
C[n+]1cccc2cc(NC(=O)c3ccc4ccc5ccc(C(=O)Nc6ccc7c(ccc[n+]7C)c6)nc5c4n3)ccc21 [Phen-DC6]	60 nM and 55 nM	–
Cc1oc2nc1-c1nc(co1)-c1nc(co1)-c1nc(co1)-c1nc(co1)-c1nc(co1)C1=NC(CS1)c1nc-2c(C)o1 (stereo unspecified) [Telomestatin (TMS)]	1.5 nM and 1 nM	2.2 nM and 1.9 nM and 2 nM
C[n+]1cc(NC(=O)c2ccc3ccc4ccc(C(=O)Nc5cc6ccccc6[n+](C)c5)nc4c3n2)cc2ccccc21	50 nM and 130 nM	–
C[n+]1ccc(-c2c3nc(c(-c4cc[n+](C)cc4)c4ccc([nH]4)c(-c4cc[n+](C)cc4)c4nc(c(-c5cc[n+](C)cc5)c5ccc2[nH]5)C=C4)C=C3)cc1	1100 nM and 1200 nM	2300 nM and 2900 nM and 4900 nM
